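96-well plates; 48 h exposure; 5 concentrations. Endpoints by linear interpolation between flanking doses. Not reached: highest tested concentration assigned. GI50: concentration for 50% inhibition of growth. TGI is the concentration that stops growth completely.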
What was measured:
Assay in all cases: NCI anticancer screen, dose series, 48 h
[1] = system: NCI-H522 lung
[2] = system: RXF 393 renal
[3] = system: NCI/ADR-RES ovarian
[4] = system: NCI-H226 lung
[5] = system: UACC-62 melanoma
[6] = system: UACC-257 melanoma
[7] = system: SK-OV-3 ovarian
[8] = system: SK-MEL-5 melanoma
[9] = system: OVCAR-5 ovarian
[10] = system: ACHN renal
[11] = system: A498 renal
[12] = system: DU-145 prostate
[13] = system: M14 melanoma
[14] = system: SK-MEL-28 melanoma
[15] = system: MALME-3M melanoma
[16] = system: PC-3 prostate
[17] = system: MDA-MB-231 breast
[18] = system: UO-31 renal
[19] = system: HS 578T breast
[20] = system: SF-539 CNS
[21] = system: MDA-MB-435
[22] = system: HCT-15 colon
[23] = system: SF-268 CNS
[24] = system: HOP-92 NSCLC

CCCC1CCC(O)(C(C)(O)C(=O)NC2C(=O)N3NCCCC3C(=O)N(O)C(C)C(=O)N3NCCCC3C(=O)N3NCC(O)CC3C(=O)NC(C)C(=O)OC2C(C)C)OC1CC (centres undefined)
GI50 [1]: > 25 µM | TGI [1]: > 25 µM | GI50 [2]: > 25 µM | TGI [2]: > 25 µM | TGI [3]: > 5.53 µM | GI50 [4]: > 25000 nM | TGI [4]: > 25 µM

N=C(N)c1ccc(-c2ccc(-c3ccc(Cl)cn3)s2)cc1
GI50 [5]: 1840 nM | TGI [5]: 3.38 µM | GI50 [6]: 1800 nM | TGI [6]: 3.62 µM | GI50 [7]: 1830 nM | TGI [7]: 3.49 µM | GI50 [8]: 1770 nM | TGI [8]: 3.19 µM | GI50 [9]: 1580 nM | TGI [9]: 3.04 µM | GI50 [10]: 1610 nM | TGI [10]: 2960 nM | GI50 [11]: 3.82 µM | TGI [11]: 17.3 µM | GI50 [12]: 1780 nM | TGI [12]: 3.34 µM | GI50 [13]: 1770 nM | TGI [13]: 3.24 µM | GI50 [14]: 1670 nM | TGI [14]: 3.07 µM | GI50 [15]: 1680 nM | TGI [15]: 3.14 µM | GI50 [16]: 1650 nM | TGI [16]: 3.17 µM | GI50 [17]: 1580 nM | TGI [17]: 3.02 µM | GI50 [18]: 1680 nM | TGI [18]: 3.07 µM | GI50 [19]: 2050 nM | TGI [19]: 5.35 µM | GI50 [20]: 1630 nM | TGI [20]: 3.01 µM | GI50 [21]: 1650 nM | TGI [21]: 3.02 µM | GI50 [22]: 1610 nM | TGI [22]: 3.08 µM | GI50 [23]: 9.67 µM | TGI [23]: 39.3 µM | GI50 [24]: 1270 nM | TGI [24]: 2670 nM | GI50 [4]: 2760 nM | TGI [4]: 12 µM
